According to US20220054465A1, “(PYRIDIN-2-YL)AMINE DERIVATIVES AS TGF-BETA R1 (ALK5) INHIBITORS FOR THE TREATMENT OF CANCER” (Nexys Therapeutics, Inc., priority 2018, published 2022):

Columns and labels:
[1] = Tissue exposure (liver and heart) in Balb/c mouse after PO dosing, general PK protocol; type: in vivo; conditions: PO (intragastric) 10 mg/Kg, liver and heart tissue 0.5-24 h, LC-MS/MS
Protocol: Comparing AUCliver/AUCheart ratio of selected Examples with clinic compounds Galunisertib and LY3200882. Tissue exposure was measured in Balb/c mouse with PO dosing at 10 mpk. […] See Stauber, et al., J. Clin. Pract., 2014, 4(3), 196.
The Balb/c mice were fasted overnight with free access to drinking water prior to treatment. Compounds were formulated in 0.5% CMC/0.5% Tween 80 with or without 1 eq. of NaOH, and administrated intragastrically at 10 mg/Kg. The liver and heart tissues of mice were collected at time points 0.5, 1, 3, 5, 7, 24 h (2 mice per time point) post dose by first sacrificing the animal by C02 inhalation. After flushing with ice saline and removal of excess water on its surface, the liver and heart tissues were weighed and homogenized in 1:5 volumes (w/v) of water with 20% methanol. Tissue samples were kept at −40˜−20° C. prior to analysis. Concentrations of compounds in the liver and hearts were determined using an established liquid chromatography-tandem mass spectrometry (LC-MS/MS) method. Tissue concentration-time data were processed by linear regression analysis. All pharmacokinetic parameters were calculated using non-compartment model of Pharsight Phoenix 8.0.

[2] = Stauber, et al., J. Clin. Pract., 2014, 4(3), 196; cited from earlier work
HEK-Blue TGFβ cell = assay: HEK-Blue TGFβ cellular reporter gene assay (SEAP readout); type: cell-based; conditions: HEK-Blue TGFβ cells stimulated with TGF-β, 22-23 h incubation, SEAP read at 630 nm
Procedure, shortened: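 Cells (2.5×10^5 cells/ml suspension) in DMEM with 0.5% heat-inactivated FBS stimulated with TGF-β (6 ng/ml working solution) plus compound at eight 3-fold dilutions for 22-23 h at 37° C. Supernatant SEAP measured with QUANTI-Blue after 30-40 min, absorbance 630 nm; percent inhibition calculated.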

| SMILES | AUCliver/AUCheart [1] | Cardiac toxicity [2] | IC50 (HEK-Blue TGFβ cell) [nM] |
| --- | --- | --- | --- |
| CC(C)(O)c1cc(Nc2cc(Oc3cn(C4CC4)nc3C3CCOCC3)ccn2)ccn1 [LY3200882, reference compound] | 1.3 | cardiac toxicity was identified as the most relevant |  |
| CC(C)(C(=O)O)c1cccc(Nc2cc(Oc3cn(C4CC4)nc3C3CCOCC3)ccn2)c1 [Example 74] | 266 |  | 230 |

More lines, main results first:

| AUCliver/AUCheart [1] | SMILES | Cardiac toxicity [2] | IC50 (HEK-Blue TGFβ cell) [nM] |
| --- | --- | --- | --- |
| 13.2 | Cc1cc(Oc2ccnc(Nc3cccc(CCC(=O)O)c3)c2)c(-c2ccccn2)nc1C [Example 1, 3-(3-((4-((5,6-dimethyl-[2,2′-bipyridin]-3-yl)oxy)pyridin-2-yl)amino)phenyl)propanoic acid] |  | 180 |
| 67.7 | Cc1ccc(Oc2ccnc(Nc3cccc(C(C)(C)C(=O)O)c3)c2)c(-c2ccccc2)n1 [Example 70, 2-methyl-2-(3-((4-((6-methyl-2-phenylpyridin-3-yl)oxy)pyridin-2-yl)amino)phenyl)propanoic acid] |  | 7 |
| 2.9 | Cc1cccc(-c2nn3c(c2-c2ccnc4ccc(C(N)=O)cc24)CCC3)n1 [Galunisertib, galunisertib, reference compound] | limiting factor |  |
